According to patent US3955959A, “Herbicide for use in transplanted rice” (priority 1974, dated 1976):

Key:
Aj (Aneiliema japonica) = experiment: Example 1 field test, weed control in transplanted rice, Iri, Korea; assay type: in vivo; details: av. of 36 and 63 DAT
Excerpt: (§1) In the field test 48 day-old seedlings (Watanabe variety) were transplanted to plots 2.5 × 6 m. seeded with the weed seeds indicated in Table 1. At 5 and 10 DAT periods, the herbicides were applied to the plants (now at the 1.2 and 2.0 leaf stage, respectively, of grass weed) at the indicated rate in kilograms per hectare (kg/ha). The weed control and rice injury results for 3 replications are reported in percentages as of the indicated times of observation. The percentages given in the "Perennials" column are based on the weight of the weeds at 63 DAT, i.e., 42 gms/3.6 m^2 for the weedy check.

Ci (Cyperus iria) = experiment: as above; assay type: in vivo; details: av. of 36 and 63 DAT
Excerpt: as §1

[1] = test system: Eo (Echinochloa oryzicola); experiment: as above; assay type: in vivo; details: av. of 36 and 63 DAT
Excerpt: as §1

[2] = test system: Mv (Monochoria vaginalis); experiment: as above; assay type: in vivo; details: av. of 36 and 63 DAT
Excerpt: as §1

transplanted rice [3] = experiment: Example 1 field test, rice injury; assay type: in vivo, rice (Watanabe variety)
Excerpt: as §1

transplanted rice [4] = experiment: Example 1 field test, rice yield; assay type: in vivo, rice (Watanabe variety)
Excerpt: as §1

Cyperus difformis = experiment: Example 2 field test, weed control, Chia Yi, Taiwan; assay type: in vivo; details: obs. 63 DAT
Description: In the tests described in the tables below, the herbicides were formulated and used in granular form in conventional manner. […] The commercial herbicide used was a granular product having 5% active ingredient.
In the field tests of the herbicide of this invention with transplanted rice, the rice seedlings were grown in conventional manner, by seeding the rice in a typical seedbed of sandy loam to clay soil of the country wherein the test was conducted. For laboratory and greenhouse work the seedlings were obtained by seeding rice in a mixture of soil, e.g., Ray silt loam, and peat in wood flats. For purposes of testing the herbicides on younger rice seedlings (infant or Dapog) the rice was usually allowed to grow for 6-15 days before lifting for transplanting. Older (ordinary) rice plants were usually grown for a period of about 2-3 weeks, or as much as about 7 weeks before lifting. Since the period of growth is dependent upon climatic conditions, a better measure of when to transplant the rice seedling is the leaf stage of growth; for infant or Dapog rice the seedling is lifted at the 1.5-2 leaf stage of growth, and for ordinary seedlings at the 2.5-5 leaf stage. The seedlings were then transplanted to the test plots for evaluation of the herbicide for injury against weed species present with the transplanted rice. The herbicides were then applied to the growth medium of the weeds and transplant rice, either preemergent or postemergent with respect to the weeds and postemergent with respect to the transplanted rice. […] Application rates given in the tables refer to the amount of active ingredient used.
Rice seedlings (ordinary) of Tainan No. 5 variety (japonica) were transplanted at 19 days of growth. Granular formulations of Herbicides A and B were applied at the 1 leaf stage of grass weed (4 DAT) and 2.5 leaf stage of grass weed (10 DAT).

[5] = test system: Grass: Ec and Ecol (Echinochloa crusgalli, Echinochloa colonum); experiment: Example 4 field test on ordinary rice, weed control, Munoz, Philippines; assay type: in vivo; details: obs. 36 DAT
Excerpt: (§2) Treatments were replicated four times.

[6] = test system: Sedges: Cd, Ci, Fl (Cyperus difformis, Cyperus iria, Fimbristylis littoralis); experiment: as above; assay type: in vivo; details: obs. 36 DAT
Excerpt: as §2

[7] = test system: pigweed, annual morning glory, smartweed, cocklebur, Italian ryegrass, crop rye, sorghum, quack grass and nutsedge; experiment: Example 9 soil life bioassay, greenhouse; assay type: in vivo; details: 5 lbs/Ac (5.605 kg/ha), Ray silt loam
Description: In this example, additional tests were run to compare the relative soil life of Herbicides A and B under greenhouse conditions.
In the soil life tests, a standardized procedure involving a series of bioassay periods, or cycles, was used. In the procedure, an arbitrary, selected mixture of four grasses, four broadleaf weeds and a sedge were seeded into Ray silt loam soil previously prepared and treated with the herbicide under test and periodically watered by sub-irrigation. After a six-week bioassay period, (i.e., the first cycle), the plants were evaluated visually for herbicidal activity. That soil in which at least 75% of three or more grass and/or broadleaf species or of the sedge alone were controlled at the end of the cycle, was advanced to a second cycle, or six-week bioassay period. The second cycle involved the same procedure as the first cycle, except that additionally, the equivalent of 50 lbs/ac (56.05 Kgs/ha) of nitrogen was mixed into the cover layer of the soil which was reseeded with the mixture of plants mentioned earlier. The plants were evaluated for herbicidal activity at the end of this six-week period and, again, the soil in which at least 75% of the grasses or broadleaf species or of the sedge alone were controlled was advanced to a third cycle. The foregoing procedure was repeated until herbicidal activity fell below that required for initiation of a new cycle.
For purposes of the soil life tests, the following spectrum of plants were used as indicators: pigweed, annual morning glory, smartweed, cocklebur, Italian ryegrass, crop rye, sorghum, quack grass and nutsedge.

[8] = test system: weeds in ordinary transplanted rice; experiment: Example 4 field test, overall weed control; assay type: in vivo
Excerpt: as §2

Question: Which “% Weed Control (Aj)” value (Aj (Aneiliema japonica); 5 DAT, 1.0 kg/ha) does the source give for CCCCOCN(C(=O)CCl)c1c(CC)cccc1CC [Herbicide B, n-(butoxymethyl)-2',6'-diethyl-2-chloroacetanilide, reference compound] here?
Answer: 79%

Question: And the “% Weed Control (Aj)” value (Aj (Aneiliema japonica); 5 DAT, 1.5 kg/ha)?
Answer: 76%

Question: And the “% Weed Control (Aj)” value (Aj (Aneiliema japonica); 5 DAT, 3.0 kg/ha)?
Answer: 85%

Question: And the “% Weed Control (Aj)” value (Aj (Aneiliema japonica); 10 DAT, 1.0 kg/ha)?
Answer: 58%

Question: And the “% Weed Control (Aj)” value (Aj (Aneiliema japonica); 10 DAT, 1.5 kg/ha)?
Answer: 77%

Question: And the “% Weed Control (Aj)” value (Aj (Aneiliema japonica); 10 DAT, 3.0 kg/ha)?
Answer: 78%

Question: What about the “% Weed Control (Ci)” value (Ci (Cyperus iria); 5 DAT, 1.0 kg/ha) of the same compound?
Answer: 98%

Question: And the “% Weed Control (Ci)” value (Ci (Cyperus iria); 5 DAT, 1.5 kg/ha)?
Answer: 97%

Question: And the “% Weed Control (Ci)” value (Ci (Cyperus iria); 5 DAT, 3.0 kg/ha)?
Answer: 99%

Question: And the “% Weed Control (Ci)” value (Ci (Cyperus iria); 10 DAT, 1.0 kg/ha)?
Answer: 54%

Question: What about the “% Weed Control (Ci)” value (Ci (Cyperus iria); 10 DAT, 1.5 kg/ha) of the same compound?
Answer: 100%

Question: And the “% Weed Control (Ci)” value (Ci (Cyperus iria); 10 DAT, 3.0 kg/ha)?
Answer: 93%

Question: What about the “% Weed Control (Eo)” value ([1]; 5 DAT, 1.0 kg/ha) of the same compound?
Answer: 64%

Question: And the “% Weed Control (Eo)” value ([1]; 5 DAT, 1.5 kg/ha)?
Answer: 89%

Question: What about the “% Weed Control (Eo)” value ([1]; 5 DAT, 3.0 kg/ha) of the same compound?
Answer: 92%

Question: What about the “% Weed Control (Eo)” value ([1]; 10 DAT, 1.0 kg/ha) of the same compound?
Answer: 68%

Question: And the “% Weed Control (Eo)” value ([1]; 10 DAT, 1.5 kg/ha)?
Answer: 83%

Question: And the “% Weed Control (Eo)” value ([1]; 10 DAT, 3.0 kg/ha)?
Answer: 77%

Question: And the “% Weed Control (Mv)” value ([2]; 5 DAT, 1.0 kg/ha)?
Answer: 43%

Question: And the “% Weed Control (Mv)” value ([2]; 5 DAT, 1.5 kg/ha)?
Answer: 55%

Question: And the “% Weed Control (Mv)” value ([2]; 5 DAT, 3.0 kg/ha)?
Answer: 70%

Question: And the “% Weed Control (Mv)” value ([2]; 10 DAT, 1.0 kg/ha)?
Answer: 58%

Question: What about the “% Weed Control (Mv)” value ([2]; 10 DAT, 1.5 kg/ha) of the same compound?
Answer: 75%

Question: And the “% Weed Control (Mv)” value ([2]; 10 DAT, 3.0 kg/ha)?
Answer: 69%

Question: What about the “% Rice Injury” value (transplanted rice [3]; 5 DAT, 1.0 kg/ha, obs. 21 DAT) of the same compound?
Answer: 0%

Question: What about the “% Rice Injury” value (transplanted rice [3]; 5 DAT, 1.0 kg/ha, obs. 42 DAT) of the same compound?
Answer: 0%

Question: And the “% Rice Injury” value (transplanted rice [3]; 5 DAT, 1.5 kg/ha, obs. 21 DAT)?
Answer: 0%

Question: What about the “% Rice Injury” value (transplanted rice [3]; 5 DAT, 1.5 kg/ha, obs. 42 DAT) of the same compound?
Answer: 0%

Question: What about the “% Rice Injury” value (transplanted rice [3]; 5 DAT, 3.0 kg/ha, obs. 21 DAT) of the same compound?
Answer: 5%

Question: And the “% Rice Injury” value (transplanted rice [3]; 5 DAT, 3.0 kg/ha, obs. 42 DAT)?
Answer: 0%

Question: And the “% Rice Injury” value (transplanted rice [3]; 10 DAT, 1.0 kg/ha, obs. 21 DAT)?
Answer: 0%

Question: What about the “% Rice Injury” value (transplanted rice [3]; 10 DAT, 1.0 kg/ha, obs. 42 DAT) of the same compound?
Answer: 0%

Question: And the “% Rice Injury” value (transplanted rice [3]; 10 DAT, 1.5 kg/ha, obs. 21 DAT)?
Answer: 0%

Question: What about the “% Rice Injury” value (transplanted rice [3]; 10 DAT, 1.5 kg/ha, obs. 42 DAT) of the same compound?
Answer: 0%

Question: What about the “% Rice Injury” value (transplanted rice [3]; 10 DAT, 3.0 kg/ha, obs. 21 DAT) of the same compound?
Answer: 0%

Question: And the “% Rice Injury” value (transplanted rice [3]; 10 DAT, 3.0 kg/ha, obs. 42 DAT)?
Answer: 0%

Question: What about the yield depression (transplanted rice [4]; 1.0 kg/ha) of the same compound?
Answer: significant yield depression

Question: What about the “Yield (% of Hand-weeded Check)” value (transplanted rice [4]; 5 DAT, 1.0 kg/ha) of the same compound?
Answer: 95%

Question: And the “Yield (% of Hand-weeded Check)” value (transplanted rice [4]; 5 DAT, 1.5 kg/ha)?
Answer: 100%

Question: What about the “Yield (% of Hand-weeded Check)” value (transplanted rice [4]; 5 DAT, 3.0 kg/ha) of the same compound?
Answer: 99%

Question: And the “Yield (% of Hand-weeded Check)” value (transplanted rice [4]; 10 DAT, 1.0 kg/ha)?
Answer: 95%

Question: And the “Yield (% of Hand-weeded Check)” value (transplanted rice [4]; 10 DAT, 1.5 kg/ha)?
Answer: 97%

Question: And the “Yield (% of Hand-weeded Check)” value (transplanted rice [4]; 10 DAT, 3.0 kg/ha)?
Answer: 100%

Question: And the “% Weed Control (Cyperus difformis)” value (Cyperus difformis; 4 DAT, 1.0 kg/ha)?
Answer: 100%

Question: And the “% Weed Control (Cyperus difformis)” value (Cyperus difformis; 4 DAT, 1.5 kg/ha)?
Answer: 100%

Question: And the “% Weed Control (Cyperus difformis)” value (Cyperus difformis; 4 DAT, 3.0 kg/ha)?
Answer: 100%

Question: And the “% Weed Control (Cyperus difformis)” value (Cyperus difformis; 10 DAT, 1.0 kg/ha)?
Answer: 100%

Question: And the “% Weed Control (Cyperus difformis)” value (Cyperus difformis; 10 DAT, 1.5 kg/ha)?
Answer: 100%

Question: And the “% Weed Control (Cyperus difformis)” value (Cyperus difformis; 10 DAT, 3.0 kg/ha)?
Answer: 100%

Question: And the “% Weed control, Grass (Ec and Ecol)” value ([5]; 5 DAT, 1.0 kg/ha)?
Answer: 100%

Question: And the “% Weed control, Grass (Ec and Ecol)” value ([5]; 5 DAT, 1.5 kg/ha)?
Answer: 100%

Question: And the “% Weed control, Grass (Ec and Ecol)” value ([5]; 5 DAT, 3.0 kg/ha)?
Answer: 100%

Question: And the “% Weed control, Grass (Ec and Ecol)” value ([5]; 14 DAT, 1.0 kg/ha)?
Answer: 0%

Question: And the “% Weed control, Grass (Ec and Ecol)” value ([5]; 14 DAT, 1.5 kg/ha)?
Answer: 0%

Question: What about the “% Weed control, Grass (Ec and Ecol)” value ([5]; 14 DAT, 3.0 kg/ha) of the same compound?
Answer: 50%

Question: And the “% Weed control, Sedges (Cd, Ci, Fl)” value ([6]; 5 DAT, 1.0 kg/ha)?
Answer: 100%

Question: What about the “% Weed control, Sedges (Cd, Ci, Fl)” value ([6]; 5 DAT, 1.5 kg/ha) of the same compound?
Answer: 100%

Question: What about the “% Weed control, Sedges (Cd, Ci, Fl)” value ([6]; 5 DAT, 3.0 kg/ha) of the same compound?
Answer: 100%

Question: And the “% Weed control, Sedges (Cd, Ci, Fl)” value ([6]; 14 DAT, 1.0 kg/ha)?
Answer: 0%

Question: And the “% Weed control, Sedges (Cd, Ci, Fl)” value ([6]; 14 DAT, 1.5 kg/ha)?
Answer: 0%

Question: And the “% Weed control, Sedges (Cd, Ci, Fl)” value ([6]; 14 DAT, 3.0 kg/ha)?
Answer: 50%

Question: And the “Soil Longevity” value [7]?
Answer: 20 Weeks

Question: And the “control of all weeds” value ([8]; 5 DAT)?
Answer: complete control of all weeds

Question: What about the “weed control in words” value ([8]; 14 DAT, 1.0 and 1.5 kgs/ha) of the same compound?
Answer: nil

Question: And the weed control ([8]; 14 DAT, 3.0 kgs/ha)?
Answer: 50%
